In patent US8426441B2, “Inhibitors of bruton's tyrosine kinase” (Roche Palo Alto LLC, priority 2007, dated 2013) one finds melting point data, which are given here for 24 compounds.

SMILES strings stand for the structures.

Regarding `CNC(=O)Nc1cc(-c2cccc(NC(=O)c3ccc(OC(F)(F)F)cc3)c2C)cn2ccnc12` [Example I-79, N-{2-Methyl-3-[8-(3-methyl-ureido)-imidazo[1,2-a]pyridin-6-yl]-phenyl}-4-trifluoromethoxy-benzamide], the melting point (in general, the temperature of the solid-liquid transition) was 148.4 to 153.2 °C.

Take `CNC(=O)Nc1cc(-c2cccc(NC(=O)c3ccc([Si](C)(C)C)cc3)c2C)cn2ccnc12`: the melting point was in the range of 143.5 to 154.4 °C.

Compound `CNC(=O)Nc1cc(-c2cccc(NC(=O)c3ccc(OC(C)C)cc3)c2C)cn2ccnc12` [Example I-81, 4-Isopropoxy-N-[2-methyl-3-[8-(3-methyl-ureido)-imidazo[1,2-a]pyridin-6-yl]-phenyl}-benzamide] had a melting point of 147.1 to 151.7 °C.

Consider `Cc1c(NC(=O)c2ccc(N(C)C)cc2)cccc1-c1cc(NC(=O)NCCCO)c2nccn2c1` [Example I-69, 4-Dimethylamino-N-(3-{8-[3-(3-hydroxy-propyl)-ureido]-imidazo[1,2-a]pyridin-6-yl}-2-methyl-phenyl)-benzamide], for which the melting point was in the range of 144.1 to 188.6 °C.

As to `Cc1c(NC(=O)c2ccc(N(C)C)cc2)cccc1-c1cc(NC(=O)NCCCN2CCOCC2)c2nccn2c1` [Example I-68, 4-Dimethylamino-N-(2-methyl-3-{8-[3-(3-morpholin-4-yl-propyl)-ureido]-imidazo[1,2-a]pyridin-6-yl}-phenyl)-benzamide], the melting point was 190.2 to 209.7 °C.

Consider `CNC(=O)Nc1cc(-c2ccccc2)nn2ccnc12` [Example I-13, 1-Methyl-3-(6-phenyl-imidazo[1,2-b]pyridazin-8-yl)-urea], for which the melting point lay in the range of 192 to 193 °C.

With `Cc1c(NC(=O)c2ccc(C(C)(C)C)cc2)cccc1-c1cc(NC(N)=O)c2nccn2c1` [Example I-67, 4-tert-Butyl-N-[2-methyl-3-(8-ureido-imidazo[1,2-a]pyridin-6-yl)-phenyl]-benzamide], the melting point was 185.4 to 215 °C.

Take `CC(O)(C#CCNC(=O)Cc1cccc(-c2cc(Nc3ccc(C(=O)N4CCOCC4)cn3)c3nccn3c2)c1)C(F)(F)F` (stereo not drawn) [Example I-84, 2-(3-{8-[5-(Morpholine-4-carbonyl)-pyridin-2-ylamino]-imidazo[1,2-a]pyridin-6-yl}-phenyl)-N-(5,5,5-trifluoro-4-hydroxy-4-methyl-pent-2-ynyl)-acetamide]: the melting point lay in the range of 136.8 to 147.5 °C.

Consider `C1=C(c2cc(Nc3ccccn3)c3nccn3n2)CCCC1` [Example I-3, (6-Cyclohex-1-enyl-imidazo[1,2-b]pyridazin-8-yl)-pyridin-2-yl-amine], for which the melting point fell in the range of 160.7 to 161.5 °C.

On to `Cc1c(NC(=O)c2ccc(C(C)(C)C)cc2)cccc1-c1cc(NC(=O)NCCO)c2nccn2c1` [Example I-71, 4-tert-Butyl-N-(3-{8-[3-(2-hydroxy-ethyl)-ureido]-imidazo[1,2-a]pyridin-6-yl}-2-methyl-phenyl)-benzamide], for which the melting point lay in the range of 176 to 177 °C.

In the case of `CCOC(=O)c1ccc(Nc2cc(-c3ccccc3)cn3ccnc23)nc1` [Example I-47, 6-(6-Phenyl-imidazo[1,2-a]pyridin-8-ylamino)-nicotinic acid ethyl ester], the melting point fell in the range of 141.5 to 142.5 °C.

`CCC(=O)Nc1cc(-c2cccc(NC(=O)c3ccc(C(C)(C)C)cc3)c2C)cn2ccnc12` [Example I-54, 4-tert-Butyl-N-[2-methyl-3-(8-propionylamino-imidazo[1,2-a]pyridin-6-yl)-phenyl]-benzamide] had a melting point of 99 to 100 °C.

The compound `Cc1c(NC(=O)c2ccc(C(C)(C)C)cc2)cccc1-c1cc(NC(=O)NCCCN2CCN(C)CC2)c2nccn2c1` [Example I-94, 4-tert-Butyl-N-[2-methyl-3-(8-{3-[3-(4-methyl-piperazin-1-yl)-propyl]-ureido}-imidazo[1,2-a]pyridin-6-yl)-phenyl]-benzamide] came in with a melting point of 167 to 168 °C.

Take `CC(=O)Nc1cc(-c2cccc(NC(=O)c3ccc(C(C)(C)C)cc3)c2C)cn2ccnc12` [Example I-57, N-[3-(8-Acetylamino-imidazo[1,2-a]pyridin-6-yl)-2-methyl-phenyl]-4-tert-butyl-benzamide]: the melting point is 132 to 133 °C.

`CNC(=O)Nc1cc(-c2cccc(NC(=O)c3ccc(OC)cc3)c2C)cn2ccnc12` [Example I-78, 4-Methoxy-N-{2-methyl-3-[8-(3-methyl-ureido)-imidazo[1,2-a]pyridin-6-yl]-phenyl}-benzamide] displayed a melting point of 147.6 to 152.9 °C.

As for `Cc1c(NC(=O)c2ccc(C(C)(C)C)cc2)cccc1-c1cc(Nc2nccs2)c2nccn2n1` [Example I-12, 4-tert-Butyl-N-{2-methyl-3-[8-(thiazol-2-ylamino)-imidazo[1,2-b]pyridazin-6-yl]-phenyl}-benzamide], the melting point was 178 to 179 °C.

Regarding `Cc1c(NC(=O)c2ccc(C(C)(C)C)cc2)cccc1-c1cc(NC(=O)NC(C)(C)C)c2nccn2n1` [Example I-10, 4-tert-Butyl-N-{3-[8-(3-tert-butyl-ureido)-imidazo[1,2-b]pyridazin-6-yl]-2-methyl-phenyl}-benzamide], the melting point is 191 to 193 °C.

Take `CNC(=O)Nc1cc(-c2cccc(CC(=O)N3Cc4ccccc4C3)c2)nn2ccnc12` [Example I-14, 1-(6-{3-[2-(1,3-Dihydro-isoindol-2-yl)-2-oxo-ethyl]-phenyl}-imidazo[1,2-b]pyridazin-8-yl)-3-methyl-urea]: the melting point was 244 to 245 °C.

As for `Cc1c(NC(=O)c2ccc(N(C)C)cc2)cccc1-c1cc(NC(=O)NCCCN2CCN(C)CC2)c2nccn2c1` [Example I-72, 4-Dimethylamino-N-[2-methyl-3-(8-{3-[3-(4-methyl-piperazin-1-yl)-propyl]-ureido}-imidazo[1,2-a]pyridin-6-yl)-phenyl]-benzamide], the melting point is 144 to 145 °C.

`Cc1c(NC(=O)c2ccc(C(C)(C)C)cc2)cccc1-c1cc(NC(=O)NC(C)C)c2nccn2n1` [Example I-6, 4-tert-Butyl-N-{3-[8-(3-isopropyl-ureido)-imidazo[1,2-b]pyridazin-6-yl]-2-methyl-phenyl}-benzamide] gave a melting point of 178 to 180 °C.

As to `CNC(=O)Nc1cc(-c2ccccc2)cn2ccnc12` [Example I-61, 1-Methyl-3-(6-phenyl-imidazo[1,2-a]pyridin-8-yl)-urea], the melting point was 69 to 70 °C.

`O=C(Cc1cccc(-c2cc(Nc3ccc(C(=O)N4CCOCC4)cn3)c3nccn3c2)c1)N1CC(OC(C(F)(F)F)C(F)(F)F)C1` [Example I-90, 2-(3-{8-[5-(Morpholine-4-carbonyl)-pyridin-2-ylamino]-imidazo[1,2-a]pyridin-6-yl}-phenyl)-1-[3-(2,2,2-trifluoro-1-trifluoromethyl-ethoxy)-azetidin-1-yl]-ethanone] displayed a melting point of 137 to 138 °C.

As to `CNC(=O)Nc1cc(-c2cccc(NC(=O)N3CC(OC(C)(C)C)C3)c2C)cn2ccnc12` [Example I-75, 3-tert-Butoxy-azetidine-1-carboxylic acid {2-methyl-3-[8-(3-methyl-ureido)-imidazo[1,2-a]pyridin-6-yl]-phenyl}-amide], the melting point lay within 158 to 161 °C.

As for `CNC(=O)Nc1cc(-c2cccc(CC(=O)NCC#CC(C)(C)C)c2)cn2ccnc12` [Example I-99, N-(4,4-Dimethyl-pent-2-ynyl)-2-{3-[8-(3-methyl-ureido)-imidazo[1,2-a]pyridin-6-yl]-phenyl}-acetamide], the melting point was in the range of 129 to 130 °C.
